From patent US20260008757A1, “N-(3-(AMINOMETHYL)-PHENYL)-5-(4-PHENYL)-5-(TRIFLUOROMETHYL)-4,5-DIHYDROISOXAZOL-3-AMINE DERIVATIVES AND SIMILAR COMPOUNDS AS PESTICIDES” (BASF SE, priority 2022, published 2026) come the findings set out here.

Holding throughout (format): in vivo
The test system of one experiment is Spodoptera eridania. The experiment can be described thus: Southern Armyworm (Spodoptera eridania), 2nd instar larvae, on sprayed lima bean plants, comparative experiment. Particulars: 96 h, 4 days after treatment, read-out: mortality in comparison with untreated controls. The protocol:
The active compounds were formulated by a Tecan liquid handler in 100% cyclohexanone as a 10,000-ppm solution supplied in tubes. The 10,000-ppm solution was serially diluted in 100% cyclohexanone to make interim solutions. These served as stock solutions for which final dilutions were made by the Tecan in 50% acetone:50% water (v/v) into 10 or 20 ml glass vials. A nonionic surfactant (Kinetic®) was included in the solution at a volume of 0.01% (v/v). The vials were then inserted into an automated electrostatic sprayer equipped with an atomizing nozzle for application to plants/insects. Lima bean plants (variety Sieva) were grown 2 plants to a pot and selected for treatment at the 1st true leaf stage. Test solutions were sprayed onto the foliage by an auto-mated electrostatic plant sprayer equipped with an atomizing spray nozzle. The plants were dried in the sprayer fume hood and then removed from the sprayer. Each pot was placed into perforated plastic bags with a zip closure. Ten to 11 armyworm larvae were placed into the bag and the bags zipped closed. Test plants were maintained in a growth room at about 25° C. and about 20-40% relative humidity for 4 days, avoiding direct exposure to fluorescent light (14:10 light:dark photoperiod) to prevent trapping of heat inside the bags. Mortality and reduced feeding were assessed 4 days after treatment, compared to untreated control plants.

A further experiment deals with Heliothis virescens. As to the kind of experiment: Tobacco Budworm (Heliothis virescens) egg and larval mortality, microtiter plate diet test. The following applies: 120 h, egg and larval mortality after 5 days, read-out: mortality in comparison with untreated controls. On the procedure:
For evaluating control of Tobacco Budworm, the test unit consisted of 96-well-microtiter plates containing an insect diet and 15-25 H. virescens eggs. The compounds were formulated using a solution containing 75% v/v water and 25% v/v DMSO. Different concentrations of formulated compounds were sprayed onto the insect diet at 10 μl, using a custom-built micro atomizer, at two replications. After application, microtiter plates were incubated at about 28±1° C. and about 80±5% relative humidity for 5 days. Egg and larval mortality was then visually assessed.

Experiment [1] relates to Frankliniella occidentalis. The experiment can be described thus: Western Flower Thrips (Frankliniella occidentalis) mortality on treated cotton leaf discs, comparative experiment. Particulars: foliar, 48 h, thrips mortality at 2 DAT, read-out: mortality in comparison with untreated controls. On the procedure:
The active compounds were formulated by a Tecan liquid handler in 100% cyclohexanone as a 10,000 ppm solution supplied in tubes. The 10,000 ppm solution was serially diluted in 100% cyclohexanone to make interim solutions. These served as stock solutions for which final dilutions were made by the Tecan in 50% acetone:50% water (v/v) into 10 or 20 ml glass vials. A nonionic surfactant (Kinetic®) was included in the solution at a volume of 0.01% (v/v). The vials were then inserted into an automated electrostatic sprayer equipped with an atomizing nozzle for application to plants/insects. Small (˜2″ in height) cotton plants were sprayed with test compounds at concentrations ranging from 300 to 0.01 ppm in acetone/water through the automated VPS. After drying, cotton leaves were removed, and circular leaf discs (˜1 cm diameter) were punched from the treated surface and transferred to clean 20 mL scintillation vials. Ten Western flower thrips (FRANOC) were aspirated into each scintillation vial. The vials with the leaf discs and thrips were kept in an upright incubator at 25° C. and 50% relative humidity with a 14:10 light:dark photoperiod. Each treatment was replicated twice. Thrips mortality was assessed at 2 DAT (days after treatment), counting all thrips both dead and alive.

In a further experiment the test system is Anthonomus grandis. As to the kind of experiment: Boll weevil (Anthonomus grandis) egg and larval mortality, microtiter plate diet test. Particulars: 120 h, egg and larval mortality after 5 days, read-out: mortality in comparison with untreated controls. The protocol: For evaluating control of boll weevil, the test unit consisted of 96-well-microtiter plates containing an insect diet and 5-10 A. grandis eggs.
The compounds were formulated using a solution containing 75% v/v water and 25% v/v DMSO. Different concentrations of formulated compounds were sprayed onto the insect diet at 5 μl, using a custom-built micro atomizer, at two replications.
After application, microtiter plates were incubated at about 25±1° C. and about 75±5% relative humidity for 5 days. Egg and larval mortality were then visually assessed.

For the next experiment, the system named is Myzus persicae. As to the kind of experiment: Green Peach Aphid (Myzus persicae), mixed life stages, systemic artificial diet test. The following applies: 72 h, aphid mortality after 3 days, read-out: mortality in comparison with untreated controls. An excerpt: For evaluating control of Green Peach Aphid through systemic means the test unit consisted of 96-well-microtiter plates containing liquid artificial diet under an artificial membrane. The compounds were formulated using a solution containing 75% v/v water and 25% v/v DMSO. Different concentrations of formulated compounds were pipetted into the aphid diet, using a custom-built pipette, at two replications. After application, 5-8 adult aphids were placed on the artificial membrane inside the microtiter plate wells. The aphids were then allowed to suck on the treated aphid diet and incubated at about 23±1° C. and about 50±5% relative humidity for 3 days. Aphid mortality and fecundity was then visually assessed.

Some results are limits rather than exact numbers.

By mortality is commonly meant the percentage killed. Take `O=C(NCc1cc(NC2=NOC(c3cc(Cl)cc(Cl)c3)(C(F)(F)F)C2)ccc1F)C1CC1` (centres unmarked) [I-8]: the mortality at 1 ppm with Spodoptera eridania came to 80%. For the same compound, the mortality at 800 ppm in the experiment with Heliothis virescens (800 ppm), with Anthonomus grandis and with Myzus persicae was not below 75% each time. In the experiment on Heliothis virescens (2500 ppm), the mortality at 2500 ppm was not below 75%. In addition, the mortality at 100 ppm in experiment [1] was found to be 100%.

With `N#CC1(NC(=O)c2cc(NC3=NOC(c4cc(Cl)cc(Cl)c4)(C(F)(F)F)C3)ccc2F)CC1` (centres unmarked) [I-30 of WO2022/171472, reference compound], the mortality at 1 ppm with Spodoptera eridania was found to be 0%. Moreover, the mortality at 100 ppm in experiment [1] was determined as 19%.
